By IC50 is commonly meant the concentration that inhibits the measured activity by half.

In assay [1] the target is T1, human CD38 (Homo sapiens, UniProt P28907).
T1 sequence (P28907 1-300): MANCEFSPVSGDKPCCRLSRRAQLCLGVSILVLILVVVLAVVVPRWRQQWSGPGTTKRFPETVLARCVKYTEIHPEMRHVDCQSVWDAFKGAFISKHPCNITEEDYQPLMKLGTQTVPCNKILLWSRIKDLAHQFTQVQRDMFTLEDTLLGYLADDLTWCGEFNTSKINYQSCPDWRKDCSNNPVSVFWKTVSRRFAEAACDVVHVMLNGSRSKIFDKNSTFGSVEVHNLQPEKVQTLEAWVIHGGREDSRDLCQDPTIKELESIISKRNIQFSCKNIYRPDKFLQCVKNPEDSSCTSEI
Put plainly: human recombinant CD38 enzyme assay (hydrolysis of NAD+). In kind it is biochemical. To be noted: human recombinant CD38, 0.4 nM enzyme, 62.5 μM NAD+; read-out: hCD38 BioChem IC50. The procedure: (§1) Compounds described herein were assayed for their ability to inhibit the hydrolysis of NAD+ by the protein CD38. The human and mouse recombinant enzyme assays measure the inhibition of the enzyme activity by compounds using recombinant enzymes and substrates in a buffered cell-free system. The assay conditions closely mimic cellular environments. Dose responses were measured using an assay to detect the hydrolysis of NAD+. All experiments were performed in the 384-well format. […] Enzyme reactions were initiated with the addition of 10 μL of a solution containing NAD+ substrate. Subsequent detection of remaining NAD+ was determined by first converting NAD+ to NADH using alcohol dehydrogenase, then using the resulting NADH to reduce resazurine to the fluorescent product resorufin. […] Following an incubation of 60 min at ambient temperature, 10 μL of 120 mM ethanol+20 U/ml alcohol dehydrogenase+30 mM semicarbazide+0.03 mM CD38 inhibitor in 50 mM HEPES, pH 7.5, 0.2 mg/ml BSA, was added and incubated at ambient temperature for 15 min. Then 10 μl 0.32 mM NaOH was added to stop the ADH reaction (plates incubated at ambient temperature for 15 min), followed by 30 μL of 0.05 mM resazurine+1000 mU/ml Diaphorase in 200 mM Tris-HCl, pH 7.7 for 15 min at ambient temperature. The plates were read for fluorescence (Excitation/Emission=540 nm/590 nm) using an EnVision plate reader. […] Note that, in Table 4, the “Compound No” corresponds to the compound numbers in Table 1.

The target in assay [2] is T2, mouse CD38 (Mus musculus, UniProt P56528).
T2 sequence (P56528 1-304): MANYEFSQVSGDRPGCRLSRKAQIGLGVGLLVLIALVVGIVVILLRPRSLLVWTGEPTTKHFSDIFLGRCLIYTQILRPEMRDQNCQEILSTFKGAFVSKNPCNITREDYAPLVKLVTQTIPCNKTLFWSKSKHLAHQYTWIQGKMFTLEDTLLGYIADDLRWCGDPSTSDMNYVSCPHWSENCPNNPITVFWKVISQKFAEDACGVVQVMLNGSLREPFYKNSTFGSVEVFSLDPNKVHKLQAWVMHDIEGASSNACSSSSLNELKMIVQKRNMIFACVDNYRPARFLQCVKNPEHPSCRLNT
Put plainly: mouse recombinant CD38 enzyme assay (hydrolysis of NAD+). It is filed as biochemical. To be noted: read-out: mCD38 BioChem IC50. Here is the method: as §1

SMILES strings stand for the structures.

As to `Cn1cncc1-c1ccnc(C(=O)N[C@H]2CC[C@H](OC(F)(F)F)CC2)n1` [Compound 317, 4-(1-methyl-1H-imidazol-5-yl)-N-((1r,4r)-4-(trifluoromethoxy)cyclohexyl)pyrimidine-2-carboxamide], the half-maximal inhibitory concentration (IC50) in assay [1] worked out at 79.1 nM; in assay [2], 41.7 nM.

On to `CC(C)O[C@H]1C[C@H](NC(=O)c2nccc(-c3cncn3C)n2)C1` [Compound 320, N-((1r,3r)-3-isopropoxycyclobutyl)-4-(1-methyl-1H-imidazol-5-yl)pyrimidine-2-carboxamide], for which the figures for the IC50 in assay [1] and in assay [2] were 949 nM and 218 nM, respectively.

Take `Cc1cnc(-c2cncn2C)nc1C(=O)N[C@H]1CC[C@H](O)CC1` [Compound 321, 5-Methyl-2-(3-methylimidazol-4-yl)-N-[(1r,4r)-4-hydroxycyclohexyl]pyrimidine-4-carboxamide]: the IC50 in assay [1] was determined as 133 nM; in assay [2], 32.2 nM.

Regarding `Cn1cncc1-c1nc(C(=O)N[C@H]2CC[C@H](OC(F)(F)F)CC2)cc(C2CCC(F)(F)CC2)n1` [Compound 322, 6-(4,4-difluorocyclohexyl)-2-(1-methyl-1H-imidazol-5-yl)-N-((1r,4r)-4-(trifluoromethoxy)cyclohexyl)pyrimidine-4-carboxamide], the IC50 worked out at 41.8 nM in assay [1] and 6.9 nM in assay [2].

Take `Cn1cncc1-c1ncc(Cl)c(C(=O)N[C@H]2CC[C@H](OC(F)F)CC2)n1` [Compound 323, 5-chloro-N-((1r,4r)-4-(difluoromethoxy)cyclohexyl)-2-(1-methyl-1H-imidazol-5-yl)pyrimidine-4-carboxamide]: the IC50 in assay [1] was 22.1 nM; in assay [2] it was 10.6 nM.

Take `Cn1cncc1-c1nc(C(=O)N[C@H]2CC[C@H](OC(F)F)CC2)cc(C2CCC(F)(F)CC2)n1` [Compound 324, 6-(4,4-difluorocyclohexyl)-N-((1r,4r)-4-(difluoromethoxy)cyclohexyl)-2-(1-methyl-1H-imidazol-5-yl)pyrimidine-4-carboxamide]: the figures for the IC50 in assay [1] and in assay [2] were 15.9 nM and 2.1 nM, respectively.

Take `Cn1cncc1-c1ncc(Cl)c(C(=O)N[C@H]2CC[C@H](OC(F)(F)F)CC2)n1` [Compound 325, 5-chloro-2-(1-methyl-1H-imidazol-5-yl)-N-((1r,4r)-4-(trifluoromethoxy)cyclohexyl)pyrimidine-4-carboxamide]: the IC50 in assay [1] came to 29.8 nM; in assay [2], 19.3 nM.

As for `Cc1cnc(-c2cncn2C)nc1C(=O)Nc1ccc(C(F)(F)F)nc1` [Compound 326, 5-methyl-2-(1-methyl-1H-imidazol-5-yl)-N-(6-(trifluoromethyl)pyridin-3-yl)pyrimidine-4-carboxamide], the values for the IC50 in assay [1] and in assay [2] were 3.4 nM and 1.4 nM, respectively.

In the case of `CO[C@H]1CC[C@H](NC(=O)c2cc(C3CC4(COC4)C3)nc(-c3cncn3C)n2)CC1` [Compound 327, N-((1r,4r)-4-methoxycyclohexyl)-2-(1-methyl-1H-imidazol-5-yl)-6-(2-oxaspiro[3.3]heptan-6-yl)pyrimidine-4-carboxamide], the IC50 in assay [1] turned out to be 22.1 nM; in assay [2], 2.6 nM.

Consider `CO[C@H]1CC[C@H](NC(=O)c2nc(-c3cncn3C)ncc2C)CC1` [Compound 328, N-((1r,4r)-4-methoxycyclohexyl)-5-methyl-2-(1-methyl-1H-imidazol-5-yl)pyrimidine-4-carboxamide], for which the IC50 came to 41.4 nM in assay [1] and 11.5 nM in assay [2].

For `CO[C@H]1CC[C@H](NC(=O)c2nc(-c3cncn3C)ncc2Cl)CC1` [Compound 329, 5-chloro-N-((1r,4r)-4-methoxycyclohexyl)-2-(1-methyl-1H-imidazol-5-yl)pyrimidine-4-carboxamide], the half-inhibitory concentration (IC50) in assay [1] was determined as 34 nM; in assay [2] it was 10.7 nM.

With `Cn1cncc1-c1ccnc(C(=O)Nc2ccc(OC3CCC(F)(F)CC3)nc2)n1` [Compound 330, N-(6-((4,4-difluorocyclohexyl)oxy)pyridin-3-yl)-4-(1-methyl-1H-imidazol-5-yl)pyrimidine-2-carboxamide], the IC50 in assay [1] was found to be 5 nM; in assay [2], 9.8 nM.

For `CO[C@H]1CC[C@H](NC(=O)c2cc(C3(O)CCC(F)(F)CC3)nc(-c3cncn3C)n2)CC1` [Compound 331, 6-(4,4-difluoro-1-hydroxycyclohexyl)-N-((1r,4r)-4-methoxycyclohexyl)-2-(1-methyl-1H-imidazol-5-yl)pyrimidine-4-carboxamide], the IC50 in assay [1] is 26 nM; in assay [2] it was 4.7 nM.

In the case of `Cn1cncc1-c1nc(C(=O)Nc2ccc(C(C)(C)O)nc2)cc(C2CCOCC2)n1` [Compound 332, N-(6-(2-hydroxypropan-2-yl)pyridin-3-yl)-2-(1-methyl-1H-imidazol-5-yl)-6-(tetrahydro-2H-pyran-4-yl)pyrimidine-4-carboxamide], the values for the IC50 in assay [1] and in assay [2] were 11 nM and 1.5 nM, respectively.

Regarding `CO[C@H]1CC[C@H](NC(=O)c2nc(-c3cncn3C)ncc2F)CC1` [Compound 333, 5-fluoro-N-((1r,4r)-4-methoxycyclohexyl)-2-(1-methyl-1H-imidazol-5-yl)pyrimidine-4-carboxamide], the IC50 in assay [1] was determined as 12.8 nM; in assay [2], 3.4 nM.

As for `Cn1cncc1-c1nc(C(=O)N[C@H]2CC[C@H](OC(F)(F)F)CC2)cc(C2CCOCC2)n1` [Compound 334, 2-(1-methyl-1H-imidazol-5-yl)-6-(tetrahydro-2H-pyran-4-yl)-N-((1r,4r)-4-(trifluoromethoxy)cyclohexyl)pyrimidine-4-carboxamide], the IC50 worked out at 12.4 nM in assay [1] and 5.4 nM in assay [2].

For the compound `Cc1cnc(-c2cncn2C)nc1C(=O)N[C@H]1CC[C@H](OC(F)F)CC1` [Compound 335, N-((1r,4r)-4-(difluoromethoxy)cyclohexyl)-5-methyl-2-(1-methyl-1H-imidazol-5-yl)pyrimidine-4-carboxamide], the IC50 came to 28.7 nM in assay [1] and 13.5 nM in assay [2].

For `Cn1cncc1-c1nc(C(=O)Nc2ccc(C(C)(C)O)nc2)cc(C2CCC(F)(F)CC2)n1` [Compound 336, 6-(4,4-difluorocyclohexyl)-N-(6-(2-hydroxypropan-2-yl)pyridin-3-yl)-2-(1-methyl-1H-imidazol-5-yl)pyrimidine-4-carboxamide], the IC50 in assay [1] came to 12.3 nM; in assay [2], 1.3 nM.

In the case of `Cn1cncc1-c1nc(C(=O)N[C@H]2CC[C@H](OCC(F)(F)F)CC2)cc(C2CCOCC2)n1` [Compound 337, 2-(1-methyl-1H-imidazol-5-yl)-6-(tetrahydro-2H-pyran-4-yl)-N-((1r,4r)-4-(2,2,2-trifluoroethoxy)cyclohexyl)pyrimidine-4-carboxamide], the IC50 in assay [1] turned out to be 10.4 nM; in assay [2] it was 1.9 nM.

In the case of `Cn1cncc1-c1ncc(F)c(C(=O)Nc2ccc(OC(F)F)nc2)n1` [Compound 338, N-(6-(difluoromethoxy)pyridin-3-yl)-5-fluoro-2-(1-methyl-1H-imidazol-5-yl)pyrimidine-4-carboxamide], the concentration for half-maximal inhibition (IC50) in assay [1] amounted to 1.8 nM; in assay [2], 1.5 nM.

As to `Cn1cncc1-c1nc(C(=O)N[C@H]2CC[C@H](OCC(F)(F)F)CC2)cc(C2CCC(F)(F)CC2)n1` [Compound 339, 6-(4,4-difluorocyclohexyl)-2-(1-methyl-1H-imidazol-5-yl)-N-((1r,4r)-4-(2,2,2-trifluoroethoxy)cyclohexyl)pyrimidine-4-carboxamide], the IC50 is 17.3 nM in assay [1] and 2 nM in assay [2].

Turning to `Cn1cncc1-c1ncc(F)c(C(=O)N[C@H]2CC[C@H](OC(F)(F)F)CC2)n1` [Compound 340, 5-fluoro-2-(1-methyl-1H-imidazol-5-yl)-N-((1r,4r)-4-(trifluoromethoxy)cyclohexyl)pyrimidine-4-carboxamide], the IC50 in assay [1] came to 11.9 nM; in assay [2], 6.3 nM.

With `Cn1cncc1-c1ncc(F)c(C(=O)N[C@H]2CC[C@H](OC(F)F)CC2)n1` [Compound 341, N-((1r,4r)-4-(difluoromethoxy)cyclohexyl)-5-fluoro-2-(1-methyl-1H-imidazol-5-yl)pyrimidine-4-carboxamide], the IC50 amounted to 8.7 nM in assay [1] and 3.8 nM in assay [2].

(Values after patent publication US20230116972A1, “CD38 MODULATORS AND METHODS OF USE THEREOF” (Cytokinetics, Inc., priority 2021, published 2023).)
